From patent publication US20180237441A1, “Chemical Compounds” (GlaxoSmithKline Intellectual Property (No.2) Limited, priority 2015, published 2018) come the findings set out here.

Read-outs that look alike come from different tables or passages of the source. A value given as a limit tells only on which side of the number the result lay.

In the assay the target is T1, PERK (Homo sapiens, UniProt Q9NZJ5).
T1 sequence (Q9NZJ5 30-1116): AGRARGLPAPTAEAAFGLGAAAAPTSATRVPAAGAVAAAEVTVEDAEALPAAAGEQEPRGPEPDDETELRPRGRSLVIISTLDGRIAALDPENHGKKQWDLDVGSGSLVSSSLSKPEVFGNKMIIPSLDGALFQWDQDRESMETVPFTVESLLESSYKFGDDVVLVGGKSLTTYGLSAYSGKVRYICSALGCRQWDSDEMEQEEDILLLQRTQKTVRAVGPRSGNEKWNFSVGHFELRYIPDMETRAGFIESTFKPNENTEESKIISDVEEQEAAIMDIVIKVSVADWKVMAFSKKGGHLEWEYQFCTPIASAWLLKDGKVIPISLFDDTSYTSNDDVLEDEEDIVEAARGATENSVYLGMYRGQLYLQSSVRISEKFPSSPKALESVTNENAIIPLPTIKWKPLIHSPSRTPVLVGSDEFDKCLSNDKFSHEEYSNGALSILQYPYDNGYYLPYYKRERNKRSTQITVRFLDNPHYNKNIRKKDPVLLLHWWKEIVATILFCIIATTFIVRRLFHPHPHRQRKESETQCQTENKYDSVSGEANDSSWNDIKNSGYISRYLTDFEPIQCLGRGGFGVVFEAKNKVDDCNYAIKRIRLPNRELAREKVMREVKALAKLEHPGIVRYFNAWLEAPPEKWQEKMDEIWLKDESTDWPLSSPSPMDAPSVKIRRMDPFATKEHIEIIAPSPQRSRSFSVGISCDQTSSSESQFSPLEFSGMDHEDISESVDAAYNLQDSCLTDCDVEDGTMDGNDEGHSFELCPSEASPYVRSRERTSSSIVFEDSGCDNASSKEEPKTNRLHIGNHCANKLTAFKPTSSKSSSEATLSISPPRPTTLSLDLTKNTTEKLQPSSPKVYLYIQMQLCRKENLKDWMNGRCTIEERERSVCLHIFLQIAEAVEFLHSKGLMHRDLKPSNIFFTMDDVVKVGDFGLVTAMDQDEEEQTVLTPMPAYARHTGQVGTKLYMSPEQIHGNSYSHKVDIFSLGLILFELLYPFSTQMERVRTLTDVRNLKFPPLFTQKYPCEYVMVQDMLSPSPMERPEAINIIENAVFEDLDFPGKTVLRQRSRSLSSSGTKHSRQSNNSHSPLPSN
The assay can be described thus: PERK enzyme assay (HTRF). In kind it is biochemical. Particulars: at least one experimental run. An outline of the steps:
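GST-PERK (0.75 nM final) pre-incubated 30–60 min with compound (≤1% DMSO) in HEPES pH 7.5/CHAPS/MgCl2/DTT, then 500 μM ATP and 40 nM biotin-eIF2α added for 60 min. EDTA quench; HTRF detection of phospho-eIF2α (Eu anti-rabbit/streptavidin-APC) read after 2 h; IC50 from concentration series.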
On the technique in general: TR-FRET usually uses a lanthanide donor and a delayed reading to cut background.

[1] abbreviates: PERK Enzyme (500 μM ATP) IC50, read-out: PERK Activity.

`CCN1C(=O)N(c2ccc(-c3cn(C)c4ncnc(N)c34)c(F)c2)CC1c1ccc(F)c(F)c1` (stereo not shown) [Example 97, 1-(4-(4-amino-7-methyl-7H-pyrrolo[2,3-d]pyrimidin-5-yl)-3-fluorophenyl)-4-(3,4-difluorophenyl)-3-ethylimidazolidin-2-one]: under setting [1], the IC50 is below 100 nM. For the compound `CCN1C(=O)N(c2ccc(-c3nn(C)c4ncnc(N)c34)c(F)c2)CC1c1ccc(F)cc1F` (stereo not shown) [Example 98, 1-(4-(4-amino-1-methyl-1H-pyrazolo[3,4-d]pyrimidin-3-yl)-3-fluorophenyl)-4-(2,4-difluorophenyl)-3-ethylimidazolidin-2-one], the IC50 under setting [1] was 100 to 1000 nM. In the case of `CN1C(=O)N(c2ccc(-c3nn(C)c4ncnc(N)c34)c(F)c2)CC1c1ccc(F)cc1F` (stereo not shown) [Example 99, 1-(4-(4-amino-1-methyl-1H-pyrazolo[3,4-d]pyrimidin-3-yl)-3-fluorophenyl)-4-(2,4-difluorophenyl)-3-methylimidazolidin-2-one], the IC50 under setting [1] was below 100 nM. With `COc1cccc(C2CN(c3ccc(-c4cn(C)c5ncnc(N)c45)c(F)c3)C(=O)N2C)c1` (stereo not shown) [Example 102, 1-(4-(4-amino-7-methyl-7H-pyrrolo[2,3-d]pyrimidin-5-yl)-3-fluorophenyl)-4-(3-methoxyphenyl)-3-methylimidazolidin-2-one], the IC50 under setting [1] was 100 to 1000 nM. The same measure, in the same setting: for `Cc1nc(N)c2c(-c3c(F)cc(N4CC(c5ccc(F)cc5F)N(C)C4=O)cc3F)cn(C)c2n1` (stereo not shown) [Example 105, 1-(4-(4-amino-2,7-dimethyl-7H-pyrrolo[2,3-d]pyrimidin-5-yl)-3,5-difluorophenyl)-4-(2,4-difluorophenyl)-3-methylimidazolidin-2-one] the value was 100 to 1000 nM. In the case of `CCN1C(=O)N(c2ccc(-c3cn(C(C)C)c4ncnc(N)c34)c(F)c2)CC1c1cc(F)ccc1F` (stereo not shown) [Example 106, 1-(4-(4-amino-7-isopropyl-7H-pyrrolo[2,3-d]pyrimidin-5-yl)-3-fluorophenyl)-4-(2,5-difluorophenyl)-3-ethylimidazolidin-2-one], the IC50 under setting [1] is 100 to 1000 nM. On the same count and under the same terms, for `CCN1C(=O)N(c2ccc(-c3cn(C4CC4)c4ncnc(N)c34)c(F)c2)CC1c1ccc(F)cc1F` (stereo not shown) [Example 107, 1-(4-(4-amino-7-cyclopropyl-7H-pyrrolo[2,3-d]pyrimidin-5-yl)-3-fluorophenyl)-4-(2,4-difluorophenyl)-3-ethylimidazolidin-2-one] the value was below 100 nM; for `CN1C(=O)N(c2ccc(-c3cn(C4CC4)c4ncnc(N)c34)c(F)c2)CC1c1ccc(F)cc1F` (stereo not shown) [Example 108, 1-(4-(4-amino-7-cyclopropyl-7H-pyrrolo[2,3-d]pyrimidin-5-yl)-3-fluorophenyl)-4-(2,4-difluorophenyl)-3-methylimidazolidin-2-one], below 100 nM; for `CCn1cc(-c2ccc(N3CC(c4ccc(F)cc4F)N(C)C3=O)cc2F)c2c(N)nc(C)nc21` (stereo not shown) [Example 109, 1-(4-(4-amino-7-ethyl-2-methyl-7H-pyrrolo[2,3-d]pyrimidin-5-yl)-3-fluorophenyl)-4-(2,4-difluorophenyl)-3-methylimidazolidin-2-one], below 100 nM. `CN1C(=O)N(c2ccc(-c3cn(C)c4ncnc(N)c34)c(F)c2)CC1c1ccncc1` (stereo not shown) [Example 110, 1-(4-(4-amino-7-methyl-7H-pyrrolo[2,3-d]pyrimidin-5-yl)-3-fluorophenyl)-3-methyl-4-(pyridin-4-yl)imidazolidin-2-one]: the IC50 is, setting by setting: (500 μM ATP, read-out: PERK Enzyme (500 μM ATP) IC50) 1980 nM; under setting [1], above 1000 nM.

Turning to `Cc1nc(C2CN(c3ccc(-c4cn(C)c5ncnc(N)c45)c(F)c3)C(=O)N2C)ccc1F` (stereo not shown) [Example 112, 1-(4-(4-amino-7-methyl-7H-pyrrolo[2,3-d]pyrimidin-5-yl)-3-fluorophenyl)-4-(5-fluoro-6-methylpyridin-2-yl)-3-methylimidazolidin-2-one], the IC50 under setting [1] was in the range of 100 to 1000 nM. On the same count and under the same terms, for `CN1C(=O)N(c2ccc(-c3cn(C4CC4)c4ncnc(N)c34)c(F)c2)CC1c1ccc(F)c(F)c1` (stereo not shown) [Example 114, 1-(4-(4-amino-7-cyclopropyl-7H-pyrrolo[2,3-d]pyrimidin-5-yl)-3-fluorophenyl)-4-(3,4-difluorophenyl)-3-methylimidazolidin-2-one] the value was below 100 nM. Same read-out and setting: for `Cc1cc(N2CC(c3cc(F)cc(F)c3)N(C)C2=O)ccc1-c1cn(C)c2ncnc(N)c12` (stereo not shown) [Example 118, 1-(4-(4-amino-7-methyl-7H-pyrrolo[2,3-d]pyrimidin-5-yl)-3-methylphenyl)-4-(3,5-difluorophenyl)-3-methylimidazolidin-2-one] the value was below 100 nM.

For the compound `Cc1cc(N2CC(c3cc(F)cc(F)c3)N(C)C2=O)ccc1-c1cn(C2CC2)c2ncnc(N)c12` (stereo not shown) [Example 119, 1-(4-(4-amino-7-cyclopropyl-7H-pyrrolo[2,3-d]pyrimidin-5-yl)-3-methylphenyl)-4-(3,5-difluorophenyl)-3-methylimidazolidin-2-one], the IC50 under setting [1] is below 100 nM. Same read-out and setting: for `CCN1C(=O)N(c2ccc(-c3cn(C4CC4)c4ncnc(N)c34)c(F)c2)CC1c1cc(F)ccc1F` (stereo not shown) [Example 120, 1-(4-(4-amino-7-cyclopropyl-7H-pyrrolo[2,3-d]pyrimidin-5-yl)-3-fluorophenyl)-4-(2,5-difluorophenyl)-3-ethylimidazolidin-2-one] the value was below 100 nM; for `CN1C(=O)N(c2ccc(-c3cn(C)c4ncnc(N)c34)c(Cl)c2)CC1c1cc(F)cc(F)c1` (stereo not shown) [Example 121, 1-(4-(4-amino-7-methyl-7H-pyrrolo[2,3-d]pyrimidin-5-yl)-3-chlorophenyl)-4-(3,5-difluorophenyl)-3-methylimidazolidin-2-one], below 100 nM.

Take `CN1C(=O)N(c2ccc(-c3cn(C4CC4)c4ncnc(N)c34)c(Cl)c2)CC1c1cc(F)cc(F)c1` (stereo not shown) [Example 122, 1-(4-(4-amino-7-cyclopropyl-7H-pyrrolo[2,3-d]pyrimidin-5-yl)-3-chlorophenyl)-4-(3,5-difluorophenyl)-3-methylimidazolidin-2-one]: the IC50 under setting [1] is below 100 nM. On the same count and under the same terms, the result for `CN1C(=O)N(c2ccc(-c3cn(C)c4ncnc(N)c34)c(F)c2)CC1c1ccc(F)c(Cl)c1` (stereo not shown) [Example 131, 1-(4-(4-amino-7-methyl-7H-pyrrolo[2,3-d]pyrimidin-5-yl)-3-fluorophenyl)-4-(3-chloro-4-fluorophenyl)-3-methylimidazolidin-2-one] reads below 100 nM. Take `CN1C(=O)N(c2ccc(-c3cn(C4CC4)c4ncnc(N)c34)c(F)c2)CC1c1ccc(F)c(Cl)c1` (stereo not shown) [Example 132, 1-(4-(4-amino-7-cyclopropyl-7H-pyrrolo[2,3-d]pyrimidin-5-yl)-3-fluorophenyl)-4-(3-chloro-4-fluorophenyl)-3-methylimidazolidin-2-one]: under setting [1], the IC50 was below 100 nM. On the same count and under the same terms, for `Cc1nc(N)c2c(-c3ccc(N4CC(c5ccc(Cl)nc5)N(C)C4=O)cc3F)cn(C)c2n1` (stereo not shown) [Example 135, 1-(4-(4-amino-2,7-dimethyl-7H-pyrrolo[2,3-d]pyrimidin-5-yl)-3-fluorophenyl)-4-(6-chloropyridin-3-yl)-3-methylimidazolidin-2-one] the value was below 100 nM.

Regarding `CN1C(=O)N(c2ccc(-c3cn(C)c4ncnc(N)c34)c(F)c2)CC1C1CCCCCC1` (stereo not shown) [Example 138, 1-(4-(4-amino-7-methyl-7H-pyrrolo[2,3-d]pyrimidin-5-yl)-3-fluorophenyl)-4-cycloheptyl-3-methylimidazolidin-2-one], the IC50 under setting [1] is below 100 nM.
